By IC50 is commonly meant the concentration at which inhibition is half-maximal.

Structures are written as SMILES. Like-named read-outs stand apart in the source and are kept apart here.

In US10695347B2, “Pyrimidine derivative and use thereof” (Hubei Bio-Pharmaceutical Industrial Technological Institute …, priority 2015, dated 2020) one finds IC50 and response rate data, which are given here for five molecules.

One test concerns the target ALK (Homo sapiens (Human), UniProt Q9UM73). In words: Inhibition of ALK kinase activity (Caliper mobility shift). It counts as biochemical. The protocol:
(§1) Inhibition of Compound I Against ALK Kinase Activity
(§2) • I. Preparation of 1× kinase buffer and stop buffer
(§3) 1) 1× Kinase Buffer • 50 mM HEPES. pH 7.5 • 0.0015% Brij-35 • 10 mM MgCl2 • 2 mM DTT • 2) stop buffer • 100 mM HEPES, pH 7.5 • 0.015% Brij-35 • 0.2% Coating Reagent #3 • 50 mM EDTA
(§4) 2. Prepare a Compound Solution to be Tested • Step 2.1 Dilute the compound to 50× of the final desired highest inhibitor concentration in reaction by 100% DMSO. Transfer 100 μl of this compound dilution to a well in a 96-well plate. For example, if desired highest inhibitor concentration is 1 μM, then prepare 50 μM of compound DMSO solution in this step.
(§5) Step 2.2 Further dilute said compound dilution by 3-fold in series, thus obtain 10 concentrations.
(§6) Step 2.3 Add 100 μl of 100% DMSO to two empty wells for no compound control and no enzyme control in the same 96-well plate. Mark the plate as source plate.
(§7) Step 2.4 Prepare an intermediate plate
(§8) Transfer 10 μl of each compound from the source plate to a new 96-well plate as the intermediate plate.
(§9) Add 90 μl of 1× kinase buffer to each well of the intermediate plate. Mix the compounds in the intermediate plate for 10 min on a shaker.
(§10) Transfer 5 μl of each well from the 96-well intermediate plate to a 384-well plate in duplicate. For example, A1 of the 96-well plate is transferred to A1 and A2 of the 384-well plate. A2 of the 96-well plate is transferred to A3 and A4 of the 384-well plate, and so on.
(§11) 4.1 Prepare a 2.5× kinase solution
(§12) Add kinase in 1× kinase base buffer, thus obtain the 2.5× kinase solution.
(§13) 4.2 Prepare a 2.5× peptide solution
(§14) 4.3 In each well of the assay plate obtained in step 3, there was 5 μL of the compound in 10% DMSO.
(§15) 4.4 Transfer the 2.5× enzyme solution to the assay plate.
(§16) 4.5 Incubate at room temperature for 10 min.
(§17) 4.6 Transfer the 2.5× peptide solution to the assay plate.
(§18) 4.7 Kinase reaction and stop
(§19) Incubate at 28° C. for 20 min.
(§20) Add 25 μl of stop buffer to stop reaction.
(§21) Conversion rate of the kinase was read via the Caliper.
(§22) 6.1 Copy conversion data from Caliper program.
(§23) 6.2 Convert conversion values to inhibition values with the following formula: Percent inhibition=(max−conversion)/(max−min)*100
(§24) where “max” stands for DMSO control; and “min” stands for low control.
(§25) 6.3 Fit the data in XLfit excel add-in version 4.3.1 and obtain IC50 values according to the following formula: Y=Bottom+(Top−Bottom)/[…].

A further test deals with ALK L1196M (Homo sapiens (Human), UniProt Q9UM73, L1196M). In words: Inhibition of ALK L1196M kinase activity (Caliper mobility shift). It is filed as biochemical. The protocol:
as §1, §2, §3, §4, §5, §6, §7, §8, §9, §10, §11, §12, §13, §14, §15, §16, §17, §18, §19, §20, §21, §22, §23, §24, §25

The next test has as its system Karpas299 cells. The test is described as follows: Suppression of Karpas299 cell proliferation (CellTiter-Glo). It is filed as cell-based. The settings on record: 3 days incubation, read-out: Inhibition activity on Karpas299 cells IC50. The protocol:
(§26) As the amount of ATP can indicate the number of living cells directly, the living cells in culture are able to be quantified by determining the ATP level. In our experiment, we use a living-cell testing kit to quantify the living cells, which utilizes UltraGlow luciferase to generate a stable glow signal in the presence of ATP which is produced by metabolism of living cells, such as respiration. Specifically, a reagent CellTiter-Glo™ was added into cell culture media, and then the luminescent intensity was determined to measure proliferation of cells, as the luminescent intensity is in direct proportion to the ATP level which correlates positively to the number of living cells. The test plate was tested with the Envision (PE).
Cell media: RPMI-1640 medium, fetal calf serum (FCS), antibiotics (Penicillin-Streptomycin)
Assay reagent: Cell Viability Assay Kit CellTiter-Glo
(§27) Others: a 96-well plate, a 384-well plate, DMSO
(§28) Step 3.1 Culturing test cells
Karpas 299 cells were plated into a black 384-well plate, with 2500 cells in 45 μl cell suspension per well. The plate was placed in a carbon dioxide incubator overnight.
(§29) Step 3.2 Preparation of the compounds to be tested
Each compound to be tested was dissolved in DMSO at 10 mM as the stock solution, which was left in a nitrogen-gas tank for storage.
After dilution of 10 μL stock solution (10 mM) into 2.5 mM as a starting working solution, 10 concentrations of the working solutions from 5 μM to 0.25 nM were obtained in duplicate by further dilution in 3-fold series with ECHO.
Step 3.3 Mixing the compound with the test cells
To each well of a new 96-well plate were added 49 μl medium and 1 μl of the compounds to be tested at individual working concentrations (10 concentrations in total). After oscillation,
5 μl of mixture in each well of the 96-well plate was transferred into corresponding wells in the 384-well plate in the step 3.1. The 384-well plate was incubated in the carbon dioxide incubator for 3 days.
To each well of the 384-well plate was added […] reagent Promega CellTiter-Glo. and incubated at room temperature for 10 minutes to stabilize the luminescence signal. The results were read with the PerkinElmer Envision Multi-mode Plate Reader.

Another test concerns Ba/F3 EML4-ALK cells. In words: Suppression of Ba/F3 EML4-ALK cell proliferation (CellTiter-Glo). It is filed as cell-based. The following applies: 3 days incubation.
Text: Cell media: RPMI-1640 medium, fetal calf serum (FCS), antibiotics (Penicillin-Streptomycin), IL-3, puromycin
Cell line: Ba/F3 EML4-ALK
Assay reagent: Cell Viability Assay Kit Celliter-Glo
as §27
as §26, with “in medium” for “in culture”, “a cell viability assay” for “a living-cell testing”, “was assayed by” for “was tested with”
as §28
Ba/F3 EML4-ALK cells were planted into a 384-well plate, with almost 300 cells per well. The plate was placed in a carbon dioxide incubator overnight.
as §29
10 concentrations of the working solutions were obtained in duplicate by dilution in 3-fold series with BRAVO.
Step 3.3 Mixing the compound to be tested with the test cells
The compounds to be tested at individual working concentrations were transferred into corresponding wells in the 384-well plate in the step 3.1, with 5 μM as the initial working concentration, and then the 384-well plate was incubated in the carbon dioxide incubator for 3 days.
To each well of the 384-well plate was added the reagent Promega CellTiter-Glo, and incubated at room temperature for 10 minutes to stabilize the luminescence signal. The results were read by the PerkinElmer Envision Multi-mode Plate Reader.
(In general: Cellular ATP, detected with luciferase, serves as a proxy for viable cell number.)

The next test relates to ALK-positive NSCLC. The settings on record: 88 patients with ALK-positive NSCLCs who had undergone Crizotinib therapy, early clinical trial; cited from earlier work.

Chain of ALK L1196M (Q9UM73 19-1620 L1196M): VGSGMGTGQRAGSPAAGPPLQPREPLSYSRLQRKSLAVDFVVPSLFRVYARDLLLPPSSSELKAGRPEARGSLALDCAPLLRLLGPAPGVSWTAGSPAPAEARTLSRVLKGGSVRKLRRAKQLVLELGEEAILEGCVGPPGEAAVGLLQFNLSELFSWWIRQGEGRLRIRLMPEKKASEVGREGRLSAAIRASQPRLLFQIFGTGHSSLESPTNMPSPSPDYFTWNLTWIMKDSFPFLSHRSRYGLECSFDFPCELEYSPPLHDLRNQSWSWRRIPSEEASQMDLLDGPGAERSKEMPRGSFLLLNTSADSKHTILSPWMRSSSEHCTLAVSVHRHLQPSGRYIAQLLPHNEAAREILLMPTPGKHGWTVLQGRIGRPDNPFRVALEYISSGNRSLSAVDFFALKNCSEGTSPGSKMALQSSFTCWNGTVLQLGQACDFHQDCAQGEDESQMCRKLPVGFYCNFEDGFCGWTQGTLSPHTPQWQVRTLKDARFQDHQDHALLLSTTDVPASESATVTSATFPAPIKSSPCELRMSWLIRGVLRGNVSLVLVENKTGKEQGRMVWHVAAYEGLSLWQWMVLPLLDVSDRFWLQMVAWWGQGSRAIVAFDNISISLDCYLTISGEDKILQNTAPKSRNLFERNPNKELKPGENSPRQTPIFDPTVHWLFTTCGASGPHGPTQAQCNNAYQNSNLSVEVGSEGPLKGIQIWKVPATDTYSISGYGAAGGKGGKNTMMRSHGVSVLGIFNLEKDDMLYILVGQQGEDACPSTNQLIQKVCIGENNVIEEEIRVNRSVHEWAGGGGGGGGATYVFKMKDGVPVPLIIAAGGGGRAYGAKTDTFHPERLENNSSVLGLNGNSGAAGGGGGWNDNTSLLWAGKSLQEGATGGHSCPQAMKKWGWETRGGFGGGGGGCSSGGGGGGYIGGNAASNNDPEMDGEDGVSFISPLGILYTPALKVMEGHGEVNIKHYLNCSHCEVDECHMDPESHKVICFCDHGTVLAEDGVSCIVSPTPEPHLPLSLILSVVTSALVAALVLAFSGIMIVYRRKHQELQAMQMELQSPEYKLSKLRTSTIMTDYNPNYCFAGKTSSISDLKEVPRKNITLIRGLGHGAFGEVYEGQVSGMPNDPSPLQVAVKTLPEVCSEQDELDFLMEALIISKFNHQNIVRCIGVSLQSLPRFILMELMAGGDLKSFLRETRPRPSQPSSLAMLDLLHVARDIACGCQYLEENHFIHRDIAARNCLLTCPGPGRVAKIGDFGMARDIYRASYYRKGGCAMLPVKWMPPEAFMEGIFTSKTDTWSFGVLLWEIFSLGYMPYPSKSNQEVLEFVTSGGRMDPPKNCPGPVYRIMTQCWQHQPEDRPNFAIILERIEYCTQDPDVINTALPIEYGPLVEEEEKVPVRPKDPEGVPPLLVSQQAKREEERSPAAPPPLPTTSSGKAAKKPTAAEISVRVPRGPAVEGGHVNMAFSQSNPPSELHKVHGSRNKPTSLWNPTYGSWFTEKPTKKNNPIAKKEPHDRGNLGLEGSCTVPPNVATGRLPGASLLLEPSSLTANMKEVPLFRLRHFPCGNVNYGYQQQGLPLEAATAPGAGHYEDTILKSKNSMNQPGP
Chain of ALK (Q9UM73 19-1620): as the sequence (Q9UM73 19-1620 L1196M) above, with M1178L counted along it

Regarding `COc1cc(N2CCC(N(C)C)CC2)ccc1Nc1ncc(OC(F)F)c(Nc2ccccc2S(=O)(=O)C(C)C)n1` [Compound I-111, 5-(difluoromethoxy)-N^2-(4-(4-(dimethylamino)piperidin-1-yl)-2-methoxyphenyl)-N^4-(2-(isopropylsulfonyl)phenyl) pyrimidine-2,4-diamine], the IC50 at ALK is < 0.001 µM; at ALK L1196M it was < 0.001 µM; in the test with Karpas299 cells (Homo sapiens, KARPAS-299, 72 h), < 0.05 µM; in the test on Ba/F3 EML4-ALK cells (Ba/F3 EML4-ALK, 72 h), < 0.02 µM.
`COc1cc(N2CCC(N(C)C)CC2)c(C)cc1Nc1ncc(OC(F)F)c(Nc2ccccc2S(=O)(=O)C(C)C)n1` [Compound I-112, 5-(difluoromethoxy)-N^2-(4-(4-(dimethylamino)piperidin-1-yl)-2-methoxy-5-methylphenyl)-N^4-(2-(isopropylsulfonyl)phenyl) pyrimidine-2,4-diamine]: the IC50 on ALK is < 0.001 µM; on ALK L1196M it was < 0.001 µM; with Karpas299 cells (Homo sapiens, KARPAS-299, 72 h), < 0.05 µM; in the test with Ba/F3 EML4-ALK cells (Ba/F3 EML4-ALK, 72 h), < 0.02 µM.
For `CC(C)Oc1cc(N2CCC(N(C)C)CC2)ccc1Nc1ncc(OC(F)F)c(Nc2ccccc2S(=O)(=O)C(C)C)n1` [Compound I-113, 5-(difluoromethoxy)-N^2-(4-(4-(dimethylamino)piperidin-1-yl)-2-isopropoxyphenyl)-N^4-(2-(isopropylsulfonyl)phenyl) pyrimidine-2,4-diamine], the IC50 at ALK was < 0.001 µM; on ALK L1196M it was < 0.001 µM; in the test on Karpas299 cells (Homo sapiens, KARPAS-299, 72 h), < 0.05 µM; in the test with Ba/F3 EML4-ALK cells (Ba/F3 EML4-ALK, 72 h) it was < 0.02 µM.
With `COc1cc(N2CCN(C(C)C)CC2)c(C)cc1Nc1ncc(OC(F)F)c(Nc2ccccc2S(=O)(=O)C(C)C)n1` [Compound I-115, 5-(difluoromethoxy)-N^2-(4-(4-isopropylpiperazin-1-yl)-2-methoxy-5-methylphenyl)-N^4-(2-(isopropylsulfonyl)phenyl) pyrimidine-2,4-diamine], the IC50 at ALK was < 0.001 µM; at ALK L1196M, < 0.001 µM; with Karpas299 cells it was < 0.05 µM; in the test on Ba/F3 EML4-ALK cells it was < 0.02 µM.
With `Cc1cc(Nc2ncc(Cl)c(Nc3ccccc3S(=O)(=O)C(C)C)n2)c(OC(C)C)cc1C1CCNCC1` [LDK378, Ceritinib], the response rate with ALK-positive NSCLC is 80%.
